Measured values as given in US12264156B2, “Compounds and pharmaceutical compositions thereof for the treatment of diseases” (GALAPAGOS NV, priority 2018, dated 2025).
pEC50: −log10 of the molar value.

Experiments:
[1] = test system: LPS triggered IL-10 secretion in monocytes; experiment: Monocytes assay: LPS-triggered IL-10 (ELISA); assay type: cell-based, human; settings: LPS 200 ng/mL, supernatant after 4 h, maximal fold change vs LPS only
Outline: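 Human CD14+ monocytes, magnetically isolated from buffy-coat PBMCs, were seeded at 100 000 cells/well and preincubated with compound for 1 h at 37° C (0.2% DMSO). LPS was then added at a final 200 ng/mL for 4 h. Supernatant IL-10 was quantified by chemiluminescent sandwich ELISA against a standard curve.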

[2] = test system: LPS-induced TNFα in monocytes; experiment: Monocytes assay: LPS-triggered TNFα (ELISA); assay type: cell-based, human; settings: LPS 200 ng/mL, supernatant after 4 h
Outline: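 Human CD14+ monocytes from buffy-coat PBMCs (magnetic bead selection) were seeded at 100 000 cells/well and pretreated with compound for 1 h at 37° C (0.2% DMSO). They were then stimulated with 200 ng/mL LPS for 4 h, and supernatant TNFα was measured by chemiluminescent sandwich ELISA as percent inhibition.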

Row | Compound | IL-10 FCmax median [1] | pEC50 [2] | pEC50 ([2]; Homo sapiens, Monocyte, 4 h) | pEC50 ([2]; Homo sapiens, Monocyte)
1 | COc1cc(-c2cnc3cc(OCC(O)CN4CCOCC4)ccn23)cc(OC(F)F)c1C(=O)NC1CC1 (single isomer, unassigned) [Cpd 386, N-cyclopropyl-2-(difluoromethoxy)-4-[7-(2-hydroxy-3-morpholino-propoxy)imidazo[1,2-a]pyridin-3-yl]-6-methoxy-benzamide] | +++ (>4.5) | 6.00 to 7.00 | – | –
2 | COc1cc(-c2cnc3cc(OCC(O)CN4CCOCC4)ccn23)cc(OC(F)F)c1C(=O)NC1CC1 (single isomer, unassigned) [Cpd 387, N-cyclopropyl-2-(difluoromethoxy)-4-[7-(2-hydroxy-3-morpholino-propoxy)imidazo[1,2-a]pyridin-3-yl]-6-methoxy-benzamide] | +++ (>4.5) | 7.00 to 10.00 | – | –
3 | COc1cc(-c2cnc3cc(OC(C)(C)CO)ccn23)cc(OC(F)F)c1C(=O)NC1CC1 [Cpd 209, N-cyclopropyl-2-(difluoromethoxy)-4-[7-(2-hydroxy-1,1-dimethyl-ethoxy)imidazo[1,2-a]pyridin-3-yl]-6-methoxy-benzamide] | + (≤1.5) | – | 6.00 to 7.00 | –
4 | COc1cc(-c2cnc3cc(OCCN4CC(F)(F)C4)ccn23)cc2c1C(=O)N(CC(F)(F)F)CC2 [Cpd 244, 6-[7-[2-(3,3-difluoroazetidin-1-yl)ethoxy]imidazo[1,2-a]pyridin-3-yl]-8-methoxy-2-(2,2,2-trifluoroethyl)-3,4-dihydroisoquinolin-1-one] | +++ (>4.5) | – | 6.00 to 7.00 | –
5 | COc1cc(-c2cnc3cc(OCCN4CCOC[C@@H]4C)ccn23)cc2c1C(=O)N(CC(F)(F)F)CC2 [Cpd 257, 8-methoxy-6-[7-[2-[(3S)-3-methylmorpholin-4-yl]ethoxy]imidazo[1,2-a]pyridin-3-yl]-2-(2,2,2-trifluoroethyl)-3,4-dihydroisoquinolin-1-one] | +++ (>4.5) | – | 6.00 to 7.00 | –
6 | COc1cc(-c2cnc3cc(OCCCN4CC(O)C4)ccn23)cc(OC(F)F)c1C(=O)NC1CC1 [Cpd 286, N-cyclopropyl-2-(difluoromethoxy)-4-[7-[3-(3-hydroxyazetidin-1-yl)propoxy]imidazo[1,2-a]pyridin-3-yl]-6-methoxy-benzamide] | ++ (>1.5-4.5) | – | 6.00 to 7.00 | –
7 | COc1cc(-c2cnc3cc(OCC(O)CN4CCCCC4)ccn23)cc(OC(F)F)c1C(=O)NC1CC1 (stereo not shown) [Cpd 321, N-cyclopropyl-2-(difluoromethoxy)-4-[7-[2-hydroxy-3-(1-piperidyl)propoxy]imidazo [1,2-a]pyridin-3-yl]-6-methoxy-benzamide] | +++ (>4.5) | – | 7.00 to 10.00 | –
8 | COc1cc(-c2cnc3cc(OCCCN4CCC5(CC4)CNC(=O)O5)ccn23)cc(OC(F)F)c1C(=O)NC1CC1 [Cpd 324, N-cyclopropyl-2-(difluoromethoxy)-6-methoxy-4-[7-[3-(2-oxo-1-oxa-3,8-diazaspiro[4.5]decan-8-yl)propoxy]imidazo[1,2-a]pyridin-3-yl]benzamide] | ++ (>1.5-4.5) | – | 6.00 to 7.00 | –
9 | COc1cc(-c2cnc3cc(OCC(O)CN4CCOCC4)ccn23)cc(OC(F)F)c1C(=O)NC1CC1 (stereo not shown) [Cpd 330, N-cyclopropyl-2-(difluoromethoxy)-4-[7-(2-hydroxy-3-morpholino-propoxy)imidazo[1,2-a]pyridin-3-yl]-6-methoxy-benzamide] | +++ (>4.5) | – | 6.00 to 7.00 | –
10 | COc1cc(-c2cnc3cc(OCCCN4CCS(=O)(=O)CC4)ccn23)cc(OC(F)F)c1C(=O)NC1CC1 [Cpd 331, N-cyclopropyl-2-(difluoromethoxy)-4-[7-[3-(1,1-dioxo-1,4-thiazinan-4-yl)propoxy]imidazo[1,2-a]pyridin-3-yl]-6-methoxy-benzamide] | +++ (>4.5) | – | 7.00 to 10.00 | –
11 | CCOC(=O)C1(F)CCN(CCCOc2ccn3c(-c4cc(OC)c(C(=O)NC5CC5)c(OC(F)F)c4)cnc3c2)CC1 [Cpd 363, ethyl 1-[3-[3-[4-(cyclopropylcarbamoyl)-3-(difluoromethoxy)-5-methoxy-phenyl]imidazo[1,2-a]pyridin-7-yl]oxypropyl]-4-fluoro-piperidine-4-carboxylate] | +++ (>4.5) | – | 7.00 to 10.00 | –
12 | COc1cc(-c2cnc3cc(OCCN4CCN(C)CC4)ccn23)cc(OC(F)F)c1C(=O)NC1CC1 [compound 9, N-cyclopropyl-2-(difluoromethoxy)-6-methoxy-4-[7-[2-(4-methylpiperazin-1-yl)ethoxy]imidazo[1,2-a]pyridin-3-yl]benzamide] | +++ (>4.5) | – | 7.00 to 10.00 | –
13 | COc1cc(-c2cnc3cc(OCCN4C5CCC4COC5)ccn23)cc(OC(F)F)c1C(=O)NC1CC1 [compound 193, N-cyclopropyl-2-(difluoromethoxy)-6-methoxy-4-[7-[2-(3-oxa-8-azabicyclo [3.2.1]octan-8-yl)ethoxy]imidazo[1,2-a]pyridin-3-yl]benzamide] | +++ (>4.5) | – | – | 7.00 to 10.00
14 | COc1cc(-c2cnc3cc(OCCN4CCOCC4)ccn23)cc2c1C(=O)N(CC(F)F)CC2 [compound 218, 2-(2,2-difluoroethyl)-8-methoxy-6-[7-(2-morpholinoethoxy)imidazo [1,2-a]pyridin-3-yl]-3,4-dihydroisoquinolin-1-one] | +++ (>4.5) | – | 6.00 to 7.00 | –
15 | COc1cc(-c2cnc3cc(OC[C@H]4COCCO4)ccn23)cc2c1C(=O)N(CC(F)F)CC2 [compound 219, 2-(2,2-difluoroethyl)-6-[7-[[(2R)-1,4-dioxan-2-yl]methoxy]imidazo[1,2-a]pyridin-3-yl]-8-methoxy-3,4-dihydroisoquinolin-1-one] | +++ (>4.5) | – | 6.00 to 7.00 | –
16 | COc1cc(-c2cnc3cc(OCC4(C)CN(C)C4)ccn23)cc(OC(F)F)c1C(=O)NC1CC1 [compound 220, N-cyclopropyl-2-(difluoromethoxy)-4-[7-[(1,3-dimethylazetidin-3-yl)methoxy]imidazo[1,2-a]pyridin-3-yl]-6-methoxy-benzamide] | +++ (>4.5) | – | 6.00 to 7.00 | –
17 | COc1cc(-c2cnc3cc(OCc4nncn4C)ccn23)cc(OC(F)F)c1C(=O)NC1CC1 [compound 227, N-cyclopropyl-2-(difluoromethoxy)-6-methoxy-4-[7-[(4-methyl-1,2,4-triazol-3-yl)methoxy]imidazo[1,2-a]pyridin-3-yl]benzamide] | ++ (>1.5-4.5) | – | 5.30 to 6.00 | –
18 | COc1cc(-c2cnc3cc(OCCN4CCOC[C@@H]4C)ccn23)cc(OC(F)F)c1C(=O)NC1CC1 [compound 233, N-cyclopropyl-2-(difluoromethoxy)-6-methoxy-4-[7-[2-[(3S)-3-methylmorpholin-4-yl]ethoxy]imidazo[1,2-a]pyridin-3-yl]benzamide] | +++ (>4.5) | – | 6.00 to 7.00 | –
19 | COc1cc(-c2cnc3cc(OCCN4CCOC[C@H]4C)ccn23)cc(OC(F)F)c1C(=O)NC1CC1 [compound 234, N-cyclopropyl-2-(difluoromethoxy)-6-methoxy-4-[7-[2-[(3R)-3-methylmorpholin-4-yl]ethoxy]imidazo[1,2-a]pyridin-3-yl]benzamide] | +++ (>4.5) | – | 6.00 to 7.00 | –
20 | COc1cc(-c2cnc3cc(OC[C@H]4COCCO4)ccn23)cc2c1C(=O)NCC2 [compound 242, 6-[7-[[(2R)-1,4-dioxan-2-yl]methoxy]imidazo[1,2-a]pyridin-3-yl]-8-methoxy-3,4-dihydro-2H-isoquinolin-1-one] | ++ (>1.5-4.5) | – | 6.00 to 7.00 | –
